Measured values: ChEMBL document CHEMBL4020733, “Approaches towards the development of chimeric DPP4/ACE inhibitors for treating metabolic syndrome” (Bioorg Med Chem Lett, 2017)
pIC50: −log10 of the molar value.

Assays:
[1] = molecular target: T1, Angiotensin-converting enzyme (Rattus norvegicus, UniProt P47820); assay: Inhibition of Wistar rat plasma ACE
T1 sequence (P47820 whole entry): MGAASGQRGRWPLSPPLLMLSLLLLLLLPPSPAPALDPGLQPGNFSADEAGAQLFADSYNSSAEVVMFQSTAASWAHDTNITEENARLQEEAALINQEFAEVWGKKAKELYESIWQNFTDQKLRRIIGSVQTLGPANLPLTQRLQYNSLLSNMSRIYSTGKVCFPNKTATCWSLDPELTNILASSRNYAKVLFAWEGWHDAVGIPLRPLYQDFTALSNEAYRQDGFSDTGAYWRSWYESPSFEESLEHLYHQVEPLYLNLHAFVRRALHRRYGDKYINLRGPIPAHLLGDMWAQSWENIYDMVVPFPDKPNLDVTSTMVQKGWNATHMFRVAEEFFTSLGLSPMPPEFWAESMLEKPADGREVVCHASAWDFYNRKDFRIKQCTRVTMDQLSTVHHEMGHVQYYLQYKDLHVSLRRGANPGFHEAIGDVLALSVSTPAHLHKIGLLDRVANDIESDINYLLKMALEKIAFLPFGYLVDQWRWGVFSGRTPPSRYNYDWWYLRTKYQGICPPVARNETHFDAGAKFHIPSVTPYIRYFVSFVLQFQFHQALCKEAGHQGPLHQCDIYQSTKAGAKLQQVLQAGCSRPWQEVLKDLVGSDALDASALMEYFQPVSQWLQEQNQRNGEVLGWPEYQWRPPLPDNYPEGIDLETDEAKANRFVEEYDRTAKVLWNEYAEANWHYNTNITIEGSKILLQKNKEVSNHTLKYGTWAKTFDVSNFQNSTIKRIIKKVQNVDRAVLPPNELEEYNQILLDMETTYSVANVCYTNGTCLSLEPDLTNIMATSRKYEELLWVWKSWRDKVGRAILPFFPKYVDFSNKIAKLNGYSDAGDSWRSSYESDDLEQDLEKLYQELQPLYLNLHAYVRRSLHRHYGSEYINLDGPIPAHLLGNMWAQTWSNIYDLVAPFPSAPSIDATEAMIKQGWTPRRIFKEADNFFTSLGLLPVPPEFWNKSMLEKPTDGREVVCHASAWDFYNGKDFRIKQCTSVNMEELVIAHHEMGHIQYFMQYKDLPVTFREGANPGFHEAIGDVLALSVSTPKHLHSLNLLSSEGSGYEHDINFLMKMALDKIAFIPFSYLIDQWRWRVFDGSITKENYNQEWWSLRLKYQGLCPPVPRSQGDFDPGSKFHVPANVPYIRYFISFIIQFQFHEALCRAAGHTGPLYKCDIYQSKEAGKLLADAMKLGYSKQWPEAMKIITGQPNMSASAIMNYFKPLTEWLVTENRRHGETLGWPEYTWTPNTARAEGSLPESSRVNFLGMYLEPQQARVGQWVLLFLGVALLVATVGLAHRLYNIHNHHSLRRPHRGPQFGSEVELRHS

Liver = assay: Stability in mouse liver microsomes; assay type: ADME, microsome
[2] = AUC (0 to 24 hrs) in Wistar rat plasma at 30 mg/kg, po; assay type: ADME, organism-based; parameters: time < 24 hr, dose 30 mg/kg, route oral
Cytochrome P450 1A2 = molecular target: T2, Cytochrome P450 1A2 (Homo sapiens, UniProt P05177); assay: Inhibition of CYP1A2 (unknown origin) up to 10 uM; assay type: ADME
T2 sequence (P05177 whole entry): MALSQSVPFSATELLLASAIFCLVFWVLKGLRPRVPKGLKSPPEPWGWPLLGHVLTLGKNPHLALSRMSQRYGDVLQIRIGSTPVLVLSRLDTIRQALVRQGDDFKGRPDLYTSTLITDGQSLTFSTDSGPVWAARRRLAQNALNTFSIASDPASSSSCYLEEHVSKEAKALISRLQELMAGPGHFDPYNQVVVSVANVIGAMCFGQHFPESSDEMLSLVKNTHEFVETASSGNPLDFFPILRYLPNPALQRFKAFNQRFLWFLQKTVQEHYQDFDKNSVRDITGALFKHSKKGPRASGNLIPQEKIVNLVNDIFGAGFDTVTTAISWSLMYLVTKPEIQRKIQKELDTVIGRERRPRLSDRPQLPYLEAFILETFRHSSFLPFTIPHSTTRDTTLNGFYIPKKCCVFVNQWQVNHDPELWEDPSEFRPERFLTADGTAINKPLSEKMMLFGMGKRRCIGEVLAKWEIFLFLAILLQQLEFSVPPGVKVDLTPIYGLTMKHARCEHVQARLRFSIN

pIC50 [1]	Stability (Liver)	AUC(0-t) at 24 h [2] [µg·h/mL]	inhibition (INH) (Cytochrome P450 1A2)	SMILES
5.55	Stable	13.9	Not Active	CCCC[C@H](N[C@@H](CCc1ccccc1)C(=O)O)C(=O)N1C[C@@H](NC(=O)C[C@H](N)Cc2cc(F)c(F)cc2F)C[C@H]1C(=O)O
6.48	Stable	0.61	Not Active	C[C@H](N[C@@H](CCc1ccccc1)C(=O)O)C(=O)N1C[C@@H](NC(=O)C[C@H](N)Cc2cc(F)c(F)cc2F)C[C@H]1C(=O)O
6.05	Stable	21.5	Not Active	CCC[C@H](N[C@@H](CCc1ccccc1)C(=O)O)C(=O)N1C[C@@H](NC(=O)C[C@H](N)Cc2cc(F)c(F)cc2F)C[C@H]1C(=O)O
7.62	Stable	2.36	Not Active	CC[C@H](N[C@@H](CCc1ccccc1)C(=O)O)C(=O)N1C[C@@H](NC(=O)C[C@H](N)Cc2cc(F)c(F)cc2F)C[C@H]1C(=O)O
